From patent US12415811B2, “1,2,3',5'-tetrahydro-2'h-spiro[indole-3,1'-pyrrolo[3,4-C]pyrrole]-2,3'-dione compounds as therapeutic agents activating TP53” (ADAMED PHARMA, S.A., priority 2018, dated 2025)
Where two headings read alike, the source gives them in different places.

Key:
[1] = tested on: SJSA-1 osteosarcoma cell line; test: Cell viability MTT assay; format: cell-based; conditions: Homo sapiens, 72 h incubation, average of 2-5 experiments
Protocol: The effect of the invented p53-Mdm2 inhibitors on cell viability has been assessed using MTT assay. It is a colorimetric assay that measures conversion of tetrazolium ring of the soluble yellow dye (MTT) into insoluble purple formazan. This process is catalyzed solely in mitochondrial dehydrogenases of living cells.
Cells were seeded on 96-well plates and then treated with successive dilutions of tested compounds. After 72 h incubation, MTT was added to the final concentration 0.5 mg/ml. The cells were further incubated for the next 4 h. Then the solution was drained and the remaining formazan crystals were dissolved in 100 μl DMSO. […] All the MTT experiments were independently repeated 2-5 times. Dose-dependent binding curves and IC50 values were calculated using GraphPad Prism 5. The presented IC50 values represent the average value from all the performed experiments (Table 3).

[2] = In vitro intrinsic clearance in murine microsomes; format: in vitro ADME; conditions: mouse, pH 7.4; murine microsomes 0.5 mg/ml, 1 μM compound, 37° C., up to 1 hour; read-out: murine MS Clint
Protocol: (§1) Metabolic stability of the compounds of the invention has been assessed by measurement of the in vitro intrinsic clearance in murine and human microsomes.
(§2) 10 mM stock solutions of markers and test compounds were prepared in DMSO. These were diluted 100-fold in 91:9 MeCN:DMSO to obtain a 100 μM assay stock. 10 mM NADPH was made up in 0.1M phosphate buffer (pH7.4). Microsomes were thawed in a waterbath at 37° C., and diluted to give a final assay concentration of 0.5 mg/ml.
(§3) 100 μM assay stocks were added to give a final concentration of 1 μM to incubation tubes containing buffer and NADPH (final assay concentration is 1 mM). Incubation tubes and microsomes were pre-warmed at 37° C. for 3 minutes. The microsomes were then added to the incubation tubes which were kept at 37° C. and shaken using the orbital shaker for the duration of the assay. Samples were taken at 6 pre-determined time points up to 1 hour and transferred to the prepared quench tubes containing an appropriate solvent with internal standard.
(§4) Quenched samples are mixed thoroughly and protein precipitated at −20° C. for a minimum of 12 hours. Samples were then centrifuged at 4° C. Supernatants were transferred to a fresh 96 well plate, compatible with the auto-sampler. The plate was sealed with a pre-slit silicone mat and analyzed by LC-MS/MS.

SJSA-1 xenograft = test: In vivo efficacy in the SJSA-1 xenograft model in mice; conditions: Mus musculus, po, 12.5 mg/kg p.o., q1d, SJSA-1 xenograft in Crl:CD-1-Foxn1nu mice, mean
Protocol: The experiment was conducted on female mice from the Crl:CD-1-Foxn1nu strain. Mice were inoculated subcutaneously in the right flank with cancer cell line SJSA-1 in the amount of 3×10^6 cells suspended in 100 μl HBSS: Matrigel matrix in a 3:1 ratio per mouse. On the 17th day after inoculation mice were divided into groups, so that in each group the mean tumor volume was similar and averaged around 200 mm^3. Experiment groups were selected, each consisting of 8 mice: Control NaCl 0.9% and compounds. Compounds 1-11 were dissolved in 56.60% PEG 400, 9.43% Cremophor RH40, 9.43% ETOH, 18.87% Labrafil M1944CS, 5.67% DMSO. For Compound 107 from WO2015/189799, group of 7 mice was used, and it was dissolved in 15% PEG400, 10% Cremophor EL, 75% H2O.
[…] During the course of experiment mice were weighed before each administration, —twice/thrice a week. Animal welfare was monitored daily. No significant difference in body weight or welfare was observed between experiment groups during and at the end of study.
Change in tumor volume was monitored twice/thrice a week starting from the first day of administration. Tumor volume was calculated based on its length and width measured with an electronic calipers: V[mm^3]=d^2×D/2
The tumor volume in the groups was measured up to 101 days after inoculation (72 days after last administration). Results of the experiment were expressed as mean values of tumor growth inhibition (TGI) ±SEM (Table 4). Tumor growth inhibition was calculated using the following formula TGI [%]=[100−[…]]
where C— mean tumor size in control group, T—mean tumor size in treated group. All calculations and graphs were performed using GraphPad Prism 5 software.

[3] = In vitro intrinsic clearance in human microsomes; format: in vitro ADME; conditions: pH 7.4; human microsomes 0.5 mg/ml, 1 μM compound, 37° C., up to 1 hour; read-out: human MS Clint
Protocol: as §1, §2, §3, §4

p53-Mdm2 interaction = p53-Mdm2 interaction (Homo sapiens (Human), UniProt Q00987); test: Fluorescence polarization (FP) binding assay, inhibition of p53-Mdm2 interaction; conditions: 75 nM Mdm2 (amino acids 1-111), 10 nM FAM-labelled p53 peptide; IC50 transformed to Ki using Kenakin equation
Protocol: The inhibition of p53-Mdm2 interaction was measured using a fluorescence polarization (FP) binding assay. FP measures the rotational movement of molecules in a homogenous suspension. For this assay, N-terminal domain of Mdm2 protein (amino acids 1-111) is combined with a fluorescein-labeled (FAM) peptide derived from p53 trans-activation domain (Sequence: 5-FAM-TSFAEYWNLLSP). Upon excitation of the fluorescent ligand with linearly polarized light the peptide emits perpendicularly polarized light. If the peptide is bound by Mdm2, rotation will slow down and the perpendicular component will proportionally decrease. In opposition disruption of the peptide-Mdm2 complex due to binding of an inhibitor to the p53 binding site of Mdm2 results in releasing of peptide and decreasing of emitted light polarization.
Fluorescence polarization experiments were read on Biotek Cytation 5 reader with the 470 nm excitation and 520 nm emission filters for fluorescein. The fluorescence polarization was measured in black 96-well plates (Corning, CLS3991) in room temperature. Purity of Mdm2 was controlled at >95%. Reaction buffer was optimized by adding 5 mM DTT and 0.1% zwitterionic detergent CHAPS to reduce effect of nonspecific interactions.
The test was performed by combining successive dilution of compounds diluted in dimethyl sulfoxide (DMSO, 5% final concentration) with 75 nM Mdm2 in reaction buffer (PBS, 0.1% CHAPS, 5 mM DTT (dithiothreitol)). After 15 minutes of incubation in room temperature 10 nM FAM-labelled peptide was added. Final reading was performed after 90 minutes of incubation. Dose-dependent binding curves and IC50 values were calculated using GraphPad Prism5 and next transformed to Ki values using Kenakin equation (Table 2).

[4] = after 7 doses, read-out: TGI P.O. 12.5 mg/kg (7 doses) [%]
[5] = after 12 doses, read-out: TGI P.O. 12.5 mg/kg (12 doses) [%]

Chain of p53-Mdm2 interaction (Q00987 1-111): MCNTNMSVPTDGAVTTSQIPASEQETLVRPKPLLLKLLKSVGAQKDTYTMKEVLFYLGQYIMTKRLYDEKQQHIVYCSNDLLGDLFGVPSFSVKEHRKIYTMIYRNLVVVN

Q: What does the source list for `COc1ncc(-n2cc3c(c2C(C)C)[C@@]2(C(=O)Nc4cc(Cl)ccc42)N(c2cccc(Cl)c2)C3=O)c(OC)n1` [Compound 1, (3S)-6-chloro-2′-(3-chlorophenyl)-5′-(2,4-dimethoxypyrimidin-5-yl)-6′-(propan-2-yl)-1,2,3′,5′-tetrahydro-2′H-spiro[indole-3,1′-pyrrolo[3,4-c]pyrrole]-2,3′-dione]?
A: IC50 [1]: 0.18 µM; microsomal CLint at 1 μM [2]: 8.8 µL/min/mg; inhibition in vivo at 12.5 mg/kg (SJSA-1 xenograft; [4]): 95%; inhibition in vivo at 12.5 mg/kg (SJSA-1 xenograft; [5]): 99.5%; microsomal CLint at 1 μM [3]: < 3 µL/min/mg; Ki (p53-Mdm2 interaction): 1.8 nM

Q: Which IC50 [1] does the source give for `COc1nc(OC)c(-n2cc3c(c2C(C)C)[C@@]2(C(=O)Nc4cc(Cl)ccc42)N(c2cc(Cl)ccc2C)C3=O)c(OC)n1` [Compound 3, (3S)-6-chloro-2′-(5-chloro-2-methylphenyl)-6′-(propan-2-yl)-5′-(trimethoxypyrimidin-5-yl)-1,2,3′,5′-tetrahydro-2′H-spiro[indole-3,1′-pyrrolo[3,4-c]pyrrole]-2,3′-dione] here?
A: Its IC50 is 0.07 µM.

Q: What about the microsomal CLint at 1 μM [2] of the same molecule?
A: The microsomal CLint at 1 μM was less than 3 µL/min/mg.

Q: And the inhibition in vivo at 12.5 mg/kg (SJSA-1 xenograft; [4])?
A: The inhibition in vivo at 12.5 mg/kg was 94.2%.

Q: And the inhibition in vivo at 12.5 mg/kg (SJSA-1 xenograft; [5])?
A: Its inhibition in vivo at 12.5 mg/kg is 99.6%.

Q: What about the microsomal CLint at 1 μM [3] of the same molecule?
A: Its microsomal CLint at 1 μM is less than 3 µL/min/mg.

Q: What about the Ki (p53-Mdm2 interaction) of the same molecule?
A: Its Ki is 2.4 nM.
